Values quoted from earlier work as cited in paper PMC7775502, “Molecular Screening Strategy to Identify a Non-invasive Delivery Mechanism for the Treatment of Middle Ear Disorders” (Frontiers in Medicine, 2020).

Key:
[1] = test system: intact tympanic membrane (TM); settings: peptide phage, incubation 1 h on the exterior surface of the TM, ref Kurabi et al. ([26])
Text: Table 1 The sequences and ME recovery of the trans-TM, 12-mer backbone peptides (TMT-2 and TMT-3) plus the top 18-mer peptide phages from the 18-mer screen. | column: Mean recovery from ME (PFUs)

[2] = test system: intact TM of ex vivo ME bulla; settings: review of the authors' earlier work
Description: In order to learn more about the mechanisms of phage transport phenomena, several experiments were designed to evaluate the impact of concentration, temperature, and oxygen levels on transport across the TM. […] Next, we tested the sensitivity of transport to oxygen deprivation and temperature using the ex vivo, intact ME bulla. When ME recovery of phage TMT-3 was assessed at various times after death, transport was observed up to 6 h postmortem, after which it ceased. Wh ...

human TM = settings: in vitro two-chamber assay, discarded TM fragments from patients undergoing TM repair; ref [28]
Text: (§1) We first tested trans-TM phage TMT-3 transport across TMs from NTHi-infected MEs of rats as well as from rats with normal MEs.

rabbit TM fragments = settings: in vitro two-chamber assay, uninfected MEs; ref [28]
Text: as §1

rat TM = settings: in vitro two-chamber assay, ref [28]
Text: as §1

guinea pig TM fragments = test system: guinea pig TM fragments; set-up: method as in PMID 30087425; settings: in vitro two-chamber assay, uninfected MEs; ref [28]

| Sequence | Mean recovery from ME (PFUs) [1] | further results |
| --- | --- | --- |
| SPTIFSTLSPKMPGGGYW [TMT-2(18)-2, M13 bacteriophage expressing 18-mer trans-TM peptide […] on pIII protein] | 12,000 PFUs |  |
| LANNNLTLSPKMPGGGYW [TMT-2(18)-1, M13 bacteriophage expressing 18-mer trans-TM peptide […] on pIII protein] | 120 PFUs |  |
| VPQGATTLSPKMPGGGYW [TMT-2(18)-3, M13 bacteriophage expressing 18-mer trans-TM peptide […] on pIII protein] | 3,000 PFUs |  |
| TEVTSRSADSTKTTHLTL [TMT-3(18)-3, M13 bacteriophage expressing 18-mer trans-TM peptide […] on pIII protein] | 280 PFUs |  |
| TLSPKMPGGGYW [TMT-2, M13 bacteriophage expressing 12-mer trans-TM backbone peptide […] on pIII protein] | 5,900 PFUs |  |
| KISVYRSADSTKTTHLTL [TMT-3(18)-2, M13 bacteriophage expressing 18-mer trans-TM peptide […] on pIII protein] | 40,000 PFUs |  |
| EGHLFPSADSTKTTHLTL [TMT-3(18)-1, M13 bacteriophage expressing 18-mer trans-TM peptide […] on pIII protein] | 90,000 PFUs |  |
| SADSTKTTHLTL [TMT-3, M13 bacteriophage expressing 12-mer trans-TM backbone peptide […] on pIII protein] | 10,800 PFUs | Transport at lowered bulla temperature ([2]; 4°C, transport over 1 h): almost entirely eliminated; Time after death up to which transport was observed ([2]; ME recovery of phage at various times postmortem, transport ceased afterwards): up to 6 h; Transport across human TM (human TM): comparable levels; Transport across uninfected rabbit TM fragments compared with other species (rabbit TM fragments): similar; Transport across TMs from NTHi-infected MEs versus normal MEs (rat TM; 1.5 mm chambers, rat TMs): no difference in transport; Transport across uninfected rat TM fragments compared with other species (rat TM; uninfected MEs): similar; Transport across uninfected guinea pig TM fragments compared with other species (guinea pig TM fragments): similar |
